Experimental data from US12064426B2, “Selective inhibitors of ROCK1 and ROCK2 protein kinases and uses thereof” (GENOSCO Inc., priority 2021, dated 2024).

What was measured:
[1] = biological target: T1, Recombinant ROCK2 (amino acids 5-554) (Homo sapiens, UniProt O75116); test: ROCK inhibition assay, LANCE Ultra TR-FRET kinase assay (ROCK2); assay type: biochemical; details: 4 μM ATP, 50 nM ULight-CREBtide substrate
T1 construct: ROCK2 (amino acids 5-554); by word order, ROCK2 from SignalChem
How it was run: (§1)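 Reaction buffer 50 mM HEPES pH 7.5, 10 mM MgCl2, 1 mM EGTA, 2 mM DTT; kinase, ULight-CREBtide (50 nM) and ATP (ROCK1 1 μM, ROCK2 4 μM) react 1 h at room temperature. Phospho-Ser133 detected by europium antibody after 10 mM EDTA stop, TR-FRET ex 320 nm; IC50 calculated.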

[2] = biological target: T2, Recombinant ROCK1 (amino acids 1-477) (Homo sapiens, UniProt Q13464); test: ROCK inhibition assay, LANCE Ultra TR-FRET kinase assay (ROCK1); assay type: biochemical; details: 1 μM ATP, 50 nM ULight-CREBtide substrate
T2 construct: Recombinant ROCK1 (amino acids 1-477); by word order, ROCK1 from Carna Biosciences
T2 sequence (Q13464 1-477): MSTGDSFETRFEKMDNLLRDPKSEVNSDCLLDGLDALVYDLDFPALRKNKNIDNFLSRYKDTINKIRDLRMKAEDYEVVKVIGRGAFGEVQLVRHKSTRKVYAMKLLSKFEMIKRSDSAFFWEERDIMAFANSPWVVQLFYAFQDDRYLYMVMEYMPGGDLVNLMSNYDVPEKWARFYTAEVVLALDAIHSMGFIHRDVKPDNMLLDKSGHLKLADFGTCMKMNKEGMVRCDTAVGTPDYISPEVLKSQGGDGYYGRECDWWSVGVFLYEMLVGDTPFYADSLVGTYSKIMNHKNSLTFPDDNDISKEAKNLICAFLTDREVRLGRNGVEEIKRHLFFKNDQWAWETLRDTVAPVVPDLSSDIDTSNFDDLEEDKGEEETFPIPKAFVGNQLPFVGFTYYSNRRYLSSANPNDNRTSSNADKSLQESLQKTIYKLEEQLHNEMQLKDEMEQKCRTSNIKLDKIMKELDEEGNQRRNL
How it was run: as §1

T1 sequence (O75116 5-554): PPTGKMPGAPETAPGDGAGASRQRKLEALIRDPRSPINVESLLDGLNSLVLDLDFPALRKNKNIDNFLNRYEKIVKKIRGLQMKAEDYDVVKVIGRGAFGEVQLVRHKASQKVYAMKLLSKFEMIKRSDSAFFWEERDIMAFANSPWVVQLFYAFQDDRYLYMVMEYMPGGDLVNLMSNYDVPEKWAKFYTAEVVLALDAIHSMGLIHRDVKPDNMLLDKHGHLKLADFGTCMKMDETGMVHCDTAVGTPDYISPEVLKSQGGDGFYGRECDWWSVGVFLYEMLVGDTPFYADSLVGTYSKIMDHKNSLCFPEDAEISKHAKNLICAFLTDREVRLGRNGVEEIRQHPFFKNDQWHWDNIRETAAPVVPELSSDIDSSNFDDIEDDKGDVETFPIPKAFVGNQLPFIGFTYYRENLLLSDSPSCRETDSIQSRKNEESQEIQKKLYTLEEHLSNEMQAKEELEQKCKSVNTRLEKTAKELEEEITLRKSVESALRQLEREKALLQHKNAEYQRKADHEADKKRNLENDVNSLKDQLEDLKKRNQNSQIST

Row | SMILES | IC50 [1] [nM] | IC50 [2] [nM]
1 | CNC(=O)c1cc(F)cc(Cn2ccc3cc(-c4cn[nH]c4Cl)ccc3c2=O)c1 [Compound 293] | < 10 | 11 to 100
2 | Cc1nocc1-c1ccc2c(=O)n(Cc3cc(F)cc(C(=O)NCC4CCN(CC(F)(F)F)CC4)c3)ccc2c1 [Compound 153] | < 10 | 101 to 500
3 | COc1cccc(C(CN)n2cnc3cc(-c4cn[nH]c4Cl)ccc3c2=O)c1 (stereo not drawn) [Compound 500] | < 10 | < 10
4 | [2H]C([2H])([2H])NC(=O)c1cccc(Cn2cnc3cc(-c4cn[nH]c4C(F)F)ccc3c2=O)c1 [Compound 392] | < 10 | 11 to 100
5 | NCc1ccccc1CNC(=O)c1cccc(Cn2ccc3cc(-c4ccnc(N)c4)ccc3c2=O)c1 [Compound 183] | 10 to 100 | 101 to 500
6 | Nc1cc(-c2ccc3c(=O)n(Cc4cccc(C(=O)NCCc5ccccc5)c4)ccc3c2)ccn1 [Compound 185] | 10 to 100 | 101 to 500
7 | CN1CCC(NC(=O)c2cccc(Cn3cnc4cc(-c5ccnn5C)ccc4c3=O)c2)CC1 [Compound 430] | < 10 | 11 to 100
8 | CN1CCC(CNC(=O)c2cc(F)cc(Cn3ccc4cc(-c5c[nH]nc5C(F)F)ncc4c3=O)c2)CC1 [Compound 274] | < 10 | < 10
9 | O=C(NCc1ccncc1)c1cccc(Cn2cnc3cc(-c4cn[nH]c4C(F)(F)F)ccc3c2=O)c1 [Compound 372] | < 10 | < 10
10 | NCC(c1cccc(Cl)c1)n1cnc2cc(-c3ccnc(N)c3)ccc2c1=O (stereo not drawn) [Compound 493] | < 10 | 11 to 100
11 | Nc1cc(-c2ccc3c(=O)n(Cc4cccc(C(=O)Nc5ccc6c(c5)COCC6)c4)ccc3c2)ccn1 [Compound 197] | 10 to 100 | 11 to 100
12 | CNC(=O)c1cccc(Cn2cc(CCO)c3cc(-c4conc4C)ccc3c2=O)c1 [Compound 552] | 10 to 100 | 101 to 500
13 | CN1CCC(CNC(=O)c2cc(F)cc(Cn3ccc4cc(N5CCOCC5)ccc4c3=O)c2)CC1 [Compound 222] | 10 to 100 | 101 to 500
14 | CN1CCC(CNC(=O)c2cccc(Cn3ccc4cc(-c5c[nH]nc5C(F)F)ccc4c3=O)c2)CC1 [Compound 56] | < 10 | < 10
15 | O=c1c2ccc(-c3ccncc3)cc2ccn1Cc1cccc(O)c1 [Compound 23] | 100 to 500 | > 501
16 | CNC(=O)c1cccc(Cn2cc(CC(C)O)c3cc(-c4cn[nH]c4C(F)(F)F)ccc3c2=O)c1 (stereo not drawn) [Compound 547] | < 10 | 11 to 100
17 | Nc1cc(-c2ccc3c(=O)n(Cc4cccc(C(=O)NC5CCOCC5)c4)ccc3c2)ccn1 [Compound 194] | 10 to 100 | 101 to 500
18 | CS(=O)(=O)Nc1ccc(CNC(=O)c2cccc(Cn3cnc4cc(-c5cn[nH]c5C(F)(F)F)ccc4c3=O)c2)cc1 [Compound 373] | < 10 | 11 to 100
19 | Cc1nocc1-c1ccc2c(=O)n(Cc3cccc(C(=O)Nc4ccc5c(c4)COCC5)c3)ccc2c1 [Compound 92] | < 10 | 11 to 100

Row | SMILES | IC50 [1] [nM] | IC50 [2] [nM]
20 | CNC(=O)c1cccc(Cn2ccc3cc(N4CCO[C@@H](C)C4)ccc3c2=O)c1 [Compound 331] | 100 to 500 | > 501
21 | O=C(NCCO)c1cccc(Cn2cnc3cc(-c4cn[nH]c4C(F)F)ccc3c2=O)c1 [Compound 393] | < 10 | 11 to 100
22 | Nc1cc(-c2ccc3c(=O)n(Cc4cc(F)cc(C(=O)NC5COC5)c4)ccc3c2)ccn1 [Compound 202] | 100 to 500 | > 501
23 | Cc1nocc1-c1ccc2c(=O)n(Cc3cccc(C(=O)NCC4COC4)c3)ccc2c1 [Compound 71] | < 10 | 11 to 100
24 | Cc1nocc1-c1ccc2c(=O)n(Cc3cc(F)cc(NC(=O)c4ccccn4)c3)ccc2c1 [Compound 350] | 10 to 100 | 101 to 500
25 | CC(=O)Nc1cccc(Cn2ccc3cc(-c4cn[nH]c4)ccc3c2=O)c1 [Compound 352] | 10 to 100 | 101 to 500
26 | Cc1nocc1-c1ccc2c(=O)n(Cc3cccc(C(=O)Nc4ccc5c(c4)CCOC5)c3)ccc2c1 [Compound 91] | < 10 | 11 to 100
27 | O=C(NCCN1CCOCC1)c1cccc(Cn2ccc3cc(N4CCOCC4)ccc3c2=O)c1 [Compound 216] | 100 to 500 | 101 to 500
28 | C[C@H](c1cccc(C(=O)N(C)C)c1)n1cnc2cc(-c3ccnc(N)c3)ccc2c1=O [Compound 482] | > 500 | > 501
29 | CNC(=O)c1cccc(Cn2cc(CCN(C)C)c3cc(-c4c[nH]nc4N)ccc3c2=O)c1 [Compound 567] | < 10 | 11 to 100
30 | CNC(=O)c1cccc(Cn2cc(C(C)O)c3cc(-c4ccnn4C)ccc3c2=O)c1 (stereo not drawn) [Compound 540] | < 10 | 11 to 100
31 | O=C(NCCN1CCOCC1)c1cccc(Cn2ccc3cc(N4CCOCC4)ccc3c2=O)c1 [Compound 230] | 10 to 100 | 11 to 100
32 | [2H]C([2H])([2H])NC(=O)c1cccc(Cn2ccc3cc(-c4ccnn4C)ccc3c2=O)c1 [Compound 321] | 10 to 100 | 101 to 500
33 | NS(=O)(=O)c1ccc(NC(=O)c2cccc(Cn3ccc4cc(-c5c[nH]nc5C(F)(F)F)ccc4c3=O)c2)cc1 [Compound 42] | 10 to 100 | 101 to 500
34 | CN1CCC(CNC(=O)c2cc(F)cc(Cn3ccc4cc(-c5ccnn5C)ccc4c3=O)c2)CC1 [Compound 172] | < 10 | 11 to 100
35 | Nc1cc(-c2ccc3c(=O)n(Cc4cccc(C(=O)NCc5ccccc5)c4)ccc3c2)ccn1 [Compound 181] | 10 to 100 | 101 to 500
36 | O=C(N[C@H]1CC[C@@H](O)CC1)c1cccc(Cn2cnc3cc(-c4cn[nH]c4Cl)ccc3c2=O)c1 [Compound 407] | < 10 | 11 to 100
37 | CNC(=O)c1cccc(C(C)n2cc(CCN(C)C)c3cc(-c4cn[nH]c4Cl)ccc3c2=O)c1 (stereo not drawn) [Compound 565] | < 10 | 11 to 100
38 | CNC(=O)c1cccc([C@@H](C)n2cnc3cc(-c4cn[nH]c4C(F)(F)F)ncc3c2=O)c1 [Compound 568, (R)—N-methyl-3-(1-(4-oxo-7-(5-(trifluoromethyl)-1H-pyrazol-4-yl)pyrido[4,3-d]pyrimidin-3(4H)-yl)ethyl)benzamide] | < 10 | 11 to 100

Row | SMILES | IC50 [1] [nM] | IC50 [2] [nM]
39 | O=C(Nc1cccc(Cn2ccc3cc(-c4c[nH]nc4C(F)F)ccc3c2=O)c1)c1ccccc1 [Compound 344] | 10 to 100 | 101 to 500
40 | C[C@H](c1cccc(C(=O)NCCN(C)C)c1)n1cnc2cc(-c3cn[nH]c3C(F)F)ccc2c1=O [Compound 460] | < 10 | < 10
41 | CNC(=O)c1cccc(Cn2ccc3cc(-c4cc[nH]c4C)ncc3c2=O)c1 [Compound 231, N-methyl-3-((6-(2-methyl-1H-pyrrol-3-yl)-1-oxo-2,7-naphthyridin-2(1H)-yl)methyl)benzamide] | < 10 | 11 to 100
42 | [2H]C([2H])([2H])NC(=O)c1cccc(Cn2ccc3cc(-c4cn[nH]c4F)ccc3c2=O)c1 [Compound 296] | < 10 | 11 to 100
43 | C[C@H](c1cccc(C(=O)NC2CCN(C)CC2)c1)n1cnc2cc(-c3cn[nH]c3C(F)(F)F)ccc2c1=O [Compound 450] | < 10 | < 10
44 | CNC(=O)c1cccc(Cn2ccc3cc(-c4conc4C)ccc3c2=O)c1F [Compound 314] | 10 to 100 | 101 to 500
45 | Cc1[nH]ncc1-c1ccc2c(c1)NCN([C@H](CO)c1cccc(Cl)c1)C2=O [Compound 523, (S)-3-(1-(3-chlorophenyl)-2-hydroxyethyl)-7-(5-methyl-1H-pyrazol-4-yl)-2,3-dihydroquinazolin-4(1H)-one] | 100 to 500 | > 501
46 | CNC(=O)c1cc(F)cc(Cn2ccc3cc(-c4ccnn4C)ncc3c2=O)c1 [Compound 245] | 10 to 100 | 101 to 500
47 | C[C@H](c1cccc(C(=O)NCC2CCOCC2)c1)n1cnc2cc(-c3cn[nH]c3C(F)F)ccc2c1=O [Compound 462] | < 10 | 11 to 100
48 | O=C(CCc1ccccn1)Nc1cccc(Cn2ccc3cc(-c4c[nH]nc4C(F)(F)F)ccc3c2=O)c1 [Compound 340] | < 10 | 11 to 100
49 | [2H]C([2H])([2H])NC(=O)c1cccc(Cn2ccc3cc(-c4cn[nH]c4C(F)(F)F)ncc3c2=O)c1 [Compound 234] | < 10 | 11 to 100
50 | Nc1cc(-c2ccc3c(=O)n(Cc4cccc(C(=O)Nc5ncc[nH]5)c4)ccc3c2)ccn1 [Compound 199] | 100 to 500 | > 501
51 | CNC(=O)c1cccc(C(C)n2cc(CCO)c3cc(-c4cn[nH]c4F)ccc3c2=O)c1 (stereo not drawn) [Compound 554] | < 10 | 11 to 100
52 | O=C(NCCO)c1cccc(Cn2cnc3cc(-c4cn[nH]c4C(F)(F)F)ccc3c2=O)c1 [Compound 384] | 10 to 100 | 11 to 100
53 | CN1CCC(NC(=O)c2cccc(Cn3cnc4cc(-c5cn[nH]c5C(F)(F)F)ccc4c3=O)c2)CC1 [Compound 378] | < 10 | < 10
54 | Cn1nccc1-c1ccc2c(=O)n(Cc3cccc(C(=O)Nc4nc5c(s4)CCNC5)c3)ccc2c1 [Compound 122] | < 10 | < 10
55 | CS(=O)(=O)Nc1ccc(NC(=O)c2cccc(Cn3cnc4cc(-c5cn[nH]c5C(F)(F)F)ccc4c3=O)c2)cc1 [Compound 385] | 10 to 100 | 101 to 500
56 | CN1CCC(NC(=O)c2cccc(Cn3ccc4cc(-c5c[nH]nc5C(F)(F)F)ccc4c3=O)c2)CC1 [Compound 47] | < 10 | < 10
57 | CNC(=O)c1cccc(Cn2ccc3cc(-c4cc[nH]c4)ccc3c2=O)c1 [Compound 305] | 100 to 500 | 101 to 500
